Results reported in EP0320002A1, “Inhalant” (KYORIN SEIYAKU KABUSHIKI KAISHA, priority 1987, dated 1989).
In brackets after ≈: the same amount, converted by molar mass.

Assay: solubility of ibudilast in water
Type: physicochemical

CC(C)C(=O)c1c(C(C)C)nn2ccccc12 [ibudilast, 3-isobutyryl-2-isopropylpyrazolo[1,5-a]pyridine]
solubility: 150 µg/mL (≈ 651 µM)
